Values after ≈ are worked out from the molar mass of the structure shown.

Drawing on ChEMBL document CHEMBL1629569, “Widespread dissemination of aminoglycoside resistance genes armA and rmtB in Klebsiella pneumoniae isolates in Taiwan producing CTX-M-type extended-spectrum beta-lactamases” (2009), this text covers MIC50, MIC90 and Activity for seven compounds.

Holding throughout (type): functional
Assay [1] relates to Klebsiella pneumoniae. The assay can be described thus: Antimicrobial activity against ESBL-producing Klebsiella pneumoniae clinical isolate by broth microdilution method.
Assay [2] deals with Klebsiella pneumoniae. The assay can be described thus: Antimicrobial activity against ESBL-producing Klebsiella pneumoniae clinical isolate assessed as susceptible isolates.
The subject of assay [3] is Klebsiella pneumoniae. The experiment in a line: Antimicrobial activity against ESBL-producing Klebsiella pneumoniae clinical isolate assessed as resistant isolates.

In the case of `CO[C@@]1(NC(=O)Cc2cccs2)C(=O)N2C(C(=O)O)=C(COC(N)=O)CS[C@@H]21` [CEFOXITIN], the MIC50 – broadly, an inhibitory concentration at the 50% level, which refers to growth in some studies and to a panel of isolates in others – against Klebsiella pneumoniae [1] turned out to be 16 µg/mL (≈ 37.4 µM). Besides, in the assay with Klebsiella pneumoniae [1], the MIC90 (usually an inhibitory concentration at the 90% level, which refers to growth in some studies and to a panel of isolates in others) turned out to be 32 µg/mL (≈ 74.9 µM). Besides, the Activity with Klebsiella pneumoniae [2] was 102 isolates; in the assay on Klebsiella pneumoniae [3], 95 isolates.

Consider `CO/N=C(\C(=O)N[C@@H]1C(=O)N2C(C(=O)O)=C(COC(C)=O)CS[C@H]12)c1csc(N)n1` [CEFOTAXIME], for which, in the assay on Klebsiella pneumoniae [1], the MIC50 is 64 µg/mL (≈ 141 µM) and the MIC90 was 64 µg/mL (≈ 141 µM). Moreover, the Activity in the assay with Klebsiella pneumoniae [2] is 12 isolates. For the same compound, the Activity in the assay with Klebsiella pneumoniae [3] stood at 146 isolates.

For the compound GENTAMICIN, in the assay with Klebsiella pneumoniae [1], the MIC50 was determined as 16 µg/mL and the MIC90 was 16 µg/mL. In the assay with Klebsiella pneumoniae [2], the Activity was 21%.

In the case of `CC(C)(O/N=C(\C(=O)N[C@@H]1C(=O)N2C(C(=O)[O-])=C(C[n+]3ccccc3)CS[C@H]12)c1csc(N)n1)C(=O)O` [CEFTAZIDIME], in the assay with Klebsiella pneumoniae [1], the MIC50 is 32 µg/mL (≈ 58.5 µM) and the MIC90 amounted to 32 µg/mL (≈ 58.5 µM). Also, the Activity in the assay on Klebsiella pneumoniae [2] came to 38 isolates. Moreover, the Activity in the assay on Klebsiella pneumoniae [3] came out at 158 isolates.

For `CC1(C)S[C@@H]2[C@H](NC(=O)[C@H](N)c3ccccc3)C(=O)N2[C@H]1C(=O)O` [AMPICILLIN], in the assay with Klebsiella pneumoniae [1], the MIC50 was > 64 µg/mL and the MIC90 is > 64 µg/mL. The Activity in the assay with Klebsiella pneumoniae [2] was 0 isolates. The Activity in the assay on Klebsiella pneumoniae [3] stood at 235 isolates.

In the assay on Klebsiella pneumoniae [1], `C[C@@H](O)[C@H]1C(=O)N2C(C(=O)O)=C(SCCNC=N)C[C@H]12` [IMIPENEM ANHYDROUS] returned an MIC50 of 0.25 µg/mL (≈ 0.835 µM) and an MIC90 of 2 µg/mL (≈ 6.68 µM). In addition, in the assay on Klebsiella pneumoniae [2], the Activity is 230 isolates. The Activity with Klebsiella pneumoniae [3] worked out at 2 isolates.

In the assay on Klebsiella pneumoniae [1], `NCC[C@H](O)C(=O)N[C@@H]1C[C@H](N)[C@@H](O[C@H]2O[C@H](CN)[C@@H](O)[C@H](O)[C@H]2O)[C@H](O)[C@H]1O[C@H]1O[C@H](CO)[C@@H](O)[C@H](N)[C@H]1O` [AMIKACIN] yielded an MIC50 of 32 µg/mL (≈ 54.6 µM) and an MIC90 of 64 µg/mL (≈ 109 µM). Also, the Activity with Klebsiella pneumoniae [2] is 106 isolates. In the assay on Klebsiella pneumoniae [3], the Activity worked out at 102 isolates.
